Inconclusive results are not listed. The source made the active and inactive calls.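 The calls were made as follows: active = fitted curve falls past -35% at a concentration up to twice the top valid dose; inconclusive = no clear call, values can overlap the other calls; inactive = signal rising instead of falling, plus the rest.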
Test system: not listed separately
Assay: viability loss in HEK293 cells – cell-based, luminescence, dry powder, set 15, cytotoxicity control, dose response (AID 743470)
Settings: HEK293T viability, CellTiter-Glo ATP luminescence, 72 h; at 1.35 µM (top of the series)

| Structure (SMILES) | activity change, negative = cytotoxicity |
| --- | --- |
| COc1cc([C@@H]2c3cc4c(cc3[C@@H](O[C@@H]3O[C@@H]5CO[C@@H](C)O[C@H]5[C@H](O)[C@H]3O)[C@H]3COC(=O)[C@H]23)OCO4)cc(OC)c1O | -29% (inactive) |

Same assay, conditions: HEK293T viability, CellTiter-Glo ATP luminescence, 72 h; at 1.6 µM (top of the series)

| Structure (SMILES) | activity change, negative = cytotoxicity |
| --- | --- |
| CCN(CCO)CCCOc1ccc2c(Nc3cc(CC(=O)Nc4cccc(F)c4)[nH]n3)ncnc2c1 | 43.7% (inactive) |

Same assay, conditions: HEK293T viability, CellTiter-Glo ATP luminescence, 72 h; at 6 µM (top of the series)

| Structure (SMILES) | activity change, negative = cytotoxicity |
| --- | --- |
| CCC(C)(C)C(=O)O[C@H]1C[C@@H](C)C=C2C=C[C@H](C)[C@H](CC[C@@H]3C[C@@H](O)CC(=O)O3)[C@H]21 | 11.4% (inactive) |
| Clc1ccc(-c2cnc3ccc(-c4ccccc4)cn23)cc1 | 7.25% (inactive) |

Same assay, conditions: HEK293T viability, CellTiter-Glo ATP luminescence, 72 h; at 8 µM (top of the series)

| Structure (SMILES) | activity change, negative = cytotoxicity |
| --- | --- |
| COc1ccc(C2=Nn3c(nnc3-c3ccccc3F)SC2)cc1OC | -35.4% (inactive) |
| COc1ccc(S(=O)(=O)N2CC[C@@H]3[C@@H](CO)N(C)c4ccc(-c5ccc(F)cc5)cc4[C@@H]32)cc1 | 0.125% (inactive) |
| COc1ccc(S(=O)(=O)N2CC[C@@H]3[C@H](CO)Nc4ccc(-c5ccc(C#N)cc5)cc4[C@@H]32)cc1 | -17.6% (inactive) |

Same assay, conditions: HEK293T viability, CellTiter-Glo ATP luminescence, 72 h; at 12 µM (top of the series)

| Structure (SMILES) | activity change, negative = cytotoxicity |
| --- | --- |
| COc1ccc(OC)c(-c2nnc3n2N=C(c2ccc(OC)c(OC)c2)CS3)c1 | -29.9% (inactive) |
| COc1ccc(NC(=O)Nc2ccc3c(c2)C(=O)N([C@@H](C)CO)C[C@H](C)[C@H](CN(C)Cc2ccc4c(c2)OCO4)O3)cc1 | 20.2% (inactive) |
| COc1ccc(C(=O)CC2(O)C(=O)Nc3c(Cl)ccc(Cl)c32)cc1 (stereo not drawn) | -19.6% (inactive) |

Same assay, conditions: HEK293T viability, CellTiter-Glo ATP luminescence, 72 h; at 26 µM (top of the series)

| Structure (SMILES) | activity change, negative = cytotoxicity |
| --- | --- |
| N#CC1=C(N)Oc2cc(O)ccc2C1c1cccc(Br)c1 (stereo not drawn) | -24.3% (inactive) |
| C[C@]1(c2nc3c(C(N)=O)cccc3[nH]2)CCCN1 | -21.6% (inactive) |
| COC(=O)c1ccc(C2C(C#N)=C(N)Oc3cc(N)ccc32)cc1 (stereo not drawn) | 19.4% (inactive) |
| COc1ccc(OC)c(-c2nnc3n2N=C(c2ccc(OC)c(OC)c2)CS3)c1 | -31.5% (inactive) |
| COc1ccc(CNc2nc(N3CCC[C@H]3CO)ncc2C(=O)NCc2ncccn2)cc1Cl | -1.87% (inactive) |
| Cc1ccc(S(=O)(=O)N2CC[C@@H]3[C@@H](CO)Nc4ccc(-c5ccc(C#N)cc5)cc4[C@@H]32)cc1 | 17.9% (inactive) |
| N#CC1=C(N)Oc2cc3c(cc2C1c1cccc(Br)c1)OCO3 (stereo not drawn) | -44.4% (inactive) |
| O=C(Nc1c(Cl)cncc1Cl)c1ccc(OC(F)F)c(OCC2CC2)c1 | -18.6% (inactive) |
| COc1ccc(-c2ccc3c(c2)[C@H]2[C@H](CCN2S(=O)(=O)c2ccc(OC)cc2)[C@@H](CO)N3)cc1 | -6.28% (inactive) |
| COc1ccccc1S(=O)(=O)N1CC[C@@H]2[C@@H](CO)Nc3ccc(-c4ccc(C#N)cc4)cc3[C@@H]21 | -22.8% (inactive) |
| N#CC1=C(N)Oc2cc(N)ccc2C1c1cccc(Br)c1 (stereo not drawn) | -38% (inactive) |
| COc1cc(Nc2ncc3c(n2)-c2ccc(Cl)cc2C(c2c(F)cccc2OC)=NC3)ccc1C(=O)O | 24.7% (inactive) |
| COc1ccc(-c2cc(NC(C)=O)c3ncc(-c4ccc(OC)c(OC)c4)n3c2)cc1 | -25.2% (inactive) |
| Cc1ccccc1C1C(C#N)=C(N)Oc2cc(N)ccc21 (stereo not drawn) | -16.9% (inactive) |
| N#CC1=C(N)Oc2ccc3ccccc3c2C1c1cccc(F)c1 (stereo not drawn) | -9.08% (inactive) |
| COc1ccc(S(=O)(=O)N2CC[C@@H]3[C@@H](CO)Nc4ccc(-c5cccc(C#N)c5)cc4[C@@H]32)cc1 | -20.5% (inactive) |
| N#Cc1ccc(-c2ccc3c(c2)[C@H]2[C@H](CCN2S(=O)(=O)c2cccc(F)c2)[C@@H](CO)N3)cc1 | -39.9% (inactive) |
| N#CC1=C(N)Oc2cc(OC(=O)c3ccccc3)ccc2C1c1cccc(Br)c1 (stereo not drawn) | -25.6% (inactive) |
| N#CC1=C(N)Oc2cc(N)ccc2C1c1ccc(Cl)cc1 (stereo not drawn) | -11.1% (inactive) |

| Structure (SMILES) | activity change, negative = cytotoxicity |
| --- | --- |
| COc1cccc(S(=O)(=O)N2CC[C@@H]3[C@@H](CO)Nc4ccc(-c5ccc(C#N)cc5)cc4[C@@H]32)c1 | -26.5% (inactive) |
| Cc1ccc(C2C(C#N)=C(N)Oc3cc(N)ccc32)cc1 (stereo not drawn) | -10.5% (inactive) |
| COc1ccc(-c2ccc3c(c2)[C@H]2[C@H](CCN2S(=O)(=O)c2ccc(OC)cc2)[C@@H](CO)N3C)cc1 | -44.3% (inactive) |
| COc1ccc(C2=Nn3c(nnc3-c3ccccc3)SC2)cc1OC | -1.77% (inactive) |
| COc1ccc(C2C(C#N)=C(N)Oc3cc(N)ccc32)cc1 (stereo not drawn) | -0.135% (inactive) |
| COc1ccccc1-c1nnc2n1N=C(c1ccc3c(c1)OCO3)CS2 | -39.2% (inactive) |
| Cc1ccc([N+](=O)[O-])cc1S(=O)(=O)N(C)C | -23.2% (inactive) |
| Cc1c([C@H](C(Cl)Cl)[C@H](O)[C@H]2C[C@H](C)C(=O)O2)ccc2c1C(=O)[C@H]1[C@H]2C[C@@H](Br)[C@@]23O[C@@H](CO[C@H]2O)C[C@]13C | -35.3% (inactive) |
| COc1ccc(C2CNC(=O)C2)cc1OC1CCCC1 (stereo not drawn) | -2.74% (inactive) |
| CN1c2ccc(-c3ccc(C#N)cc3)cc2[C@H]2[C@H](CCN2S(=O)(=O)c2cccc(F)c2)[C@H]1CO | -71.9% (inactive) |
| N#Cc1ccc(-c2ccc3c(c2)[C@H]2[C@H](CCN2S(=O)(=O)c2ccccc2F)[C@@H](CO)N3)cc1 | -7.37% (inactive) |
| CN(C(=O)CCCOc1ccc2[nH]c(=O)ccc2c1)C1CCCCC1 | 27% (inactive) |
| Cc1cccc(C2C(C#N)=C(N)Oc3cc(N)ccc32)c1 (stereo not drawn) | -30.4% (inactive) |
| CCCCc1ccc2nc(NC(=O)OC)[nH]c2c1 | -29.4% (inactive) |
| N#CC1=C(N)Oc2cc(N)ccc2C1c1ccc2ccccc2c1 (stereo not drawn) | -9.63% (inactive) |
| N#CC1=C(N)Oc2cc(N)ccc2C12C(=O)Nc1ccc(Br)cc12 (stereo not drawn) | 5.19% (inactive) |
| COc1cccc(C2C(C#N)=C(N)Oc3cc(N)ccc32)c1 (stereo not drawn) | -23.2% (inactive) |
| CN1c2ccc(-c3ccc(C#N)cc3)cc2[C@H]2[C@H](CCN2S(=O)(=O)c2ccc(F)cc2)[C@H]1CO | 13.6% (inactive) |

Same assay, conditions: HEK293T viability, CellTiter-Glo ATP luminescence, 72 h; at 50 µM (top of the series)

| Structure (SMILES) | activity change, negative = cytotoxicity |
| --- | --- |
| O=P1(NCCCl)OCCCN1CCCl (stereo not drawn) | 9.21% (inactive) |
| CCC(C)C(=O)OC1CC(C)C=C2C=CC(C)C(CCC(O)CC(O)CC(=O)O)C21 (stereo not drawn) | 55.2% (inactive) |

Same assay, conditions: HEK293T viability, CellTiter-Glo ATP luminescence, 72 h; at 110 µM (top of the series)

| Structure (SMILES) | activity change, negative = cytotoxicity |
| --- | --- |
| O=C(c1cc(Cc2n[nH]c(=O)c3ccccc23)ccc1F)N1CCN(C(=O)C2CC2)CC1 | 31.3% (inactive) |

Test system: HEK293T viability, CellTiter-Glo ATP luminescence, 72 h
Assay: as above
Settings: not given

| Structure (SMILES) | AC35 |
| --- | --- |
| Cc1cc(Nc2cc(N3CCN(C)CC3)nc(Sc3ccc(NC(=O)C4CC4)cc3)n2)n[nH]1 | 3.09 µM |
| COc1cc(C2C(C#N)=C(N)Oc3cc(N(C)C)ccc32)cc2c1OCO2 (stereo not drawn) | 0.184 µM |
| COc1ccc(C2=Nn3c(nnc3-c3ccccc3Cl)SC2)cc1OC | 6.79 µM |
| N#CC1=C(N)Oc2cc(N)ccc2C1c1cccc(F)c1 (stereo not drawn) | 4.67 µM |
| Nc1ccn([C@@H]2O[C@H](CO)[C@H](O)C2O)c(=O)n1 (stereo partly drawn) | 3.18 µM |
| Cc1nc(Nc2ncc(C(=O)Nc3c(C)cccc3Cl)s2)cc(N2CCN(CCO)CC2)n1 | 38.2 µM |
| CCc1c2c(nc3ccc(O)cc13)-c1cc3c(c(=O)n1C2)COC(=O)C3(O)CC (stereo not drawn) | 0.0239 µM |
| CC1(C)CC(c2nc(-c3ccc4ccc(-c5ccccc5)nc4c3)c3c(N)nccn23)C1 | 4.66 µM |
| N#CC1=C(N)Oc2cc(N)ccc2C1c1ccccc1 (stereo not drawn) | 17.4 µM |
| COc1ccc(S(=O)(=O)N2CC[C@@H]3[C@@H](CO)Nc4ccc(-c5ccc(C#N)cc5)cc4[C@@H]32)cc1 | 6.16 µM |
| CC[C@@]1(O)C(=O)OCc2c1cc1n(c2=O)Cc2cc3c(CN(C)C)c(O)ccc3nc2-1 | 0.181 µM |
| Clc1ccccc1-c1nnc2n1N=C(c1ccc3c(c1)OCO3)CS2 | 3.54 µM |
| CN(C)c1ccc2c(c1)OC(N)=C(C#N)C2c1cccc(F)c1 (stereo not drawn) | 0.586 µM |
| C=C([C@@H](O)[C@@H](C)O)[C@@H](OC)[C@]1(C)Cc2cc3cc(O[C@H]4CC(OC5CC(O)C(O)C(C)O5)C(O)C(C)O4)cc(O)c3c(O)c2C(=O)[C@H]1OC1CC(OC2CC(OC3CC(C)(O)C(O)C(C)O3)C(O)C(C)O2)C(O)C(C)O1 (stereo partly drawn) | 0.188 µM |
| CN1CCN(CCOc2cc(OC3CCOCC3)c3c(Nc4c(Cl)ccc5c4OCO5)ncnc3c2)CC1 | 23.8 µM |
| Nc1ncnc2c1c(-c1cccc(OCc3ccccc3)c1)cn2C1CC(CN2CCCC2)C1 (stereo not drawn) | 9.93 µM |
| CC[C@]1(O)CC2CN(CCc3c([nH]c4ccccc34)[C@@](C(=O)OC)(c3cc4c(cc3OC)N(C=O)[C@H]3[C@@](O)(C(=O)OC)[C@H](OC(C)=O)[C@]5(CC)C=CCN6CC[C@]43[C@@H]65)C2)C1 (stereo partly drawn) | 0.651 µM |
| CCOC(=O)CCNc1cc(N2CCc3ccccc3CC2)nc(-c2ccccn2)n1 | 9.37 µM |
| COc1ccc(-c2cc(NC=O)c3ncc(-c4ccc(OC)c(OC)c4)n3c2)cc1 | 5.61 µM |
| COc1ccc(C2=Nn3c(nnc3-c3ccccc3OC)SC2)cc1OC | 0.377 µM |
| CC(C)N1c2ccccc2C(c2ccc(F)cc2)C1/C=C/C(O)CC(O)CC(=O)O (stereo not drawn) | 4.91 µM |
| COc1ccc(S(=O)(=O)N(C(C)=O)c2ccc(OC(C)=O)c3ccccc23)cc1[N+](=O)[O-] | 21.5 µM |
| CC(C)(O)CCc1ccc(O)c2c(=O)c3c(O)c4c(cc3oc12)O[C@H]1OC=C[C@@]41O | 0.0808 µM |
